Laboratory results as given in US8802895B2, “Amide derivatives of benzene-sulfonanilide, pharmaceutical composition thereof and method for cancer treatment using the same” (Cleveland State University, priority 2010, dated 2014).

Legend:
Format in all cases: cell-based
CCRF-CEM = assay: NCIDTP 60 cancer cell lines screening, Leukemia panel
K-562 = assay: as above
NCI-H522 = assay: NCIDTP 60 cancer cell lines screening, Non-Small Cell Lung Cancer panel
COLO 205 = assay: NCIDTP 60 cancer cell lines screening, Colon Cancer panel
SW-620 = assay: as above
SF-268 = assay: NCIDTP 60 cancer cell lines screening, CNS Cancer panel
U251 = assay: as above
LOX IMVI = assay: NCIDTP 60 cancer cell lines screening, Melanoma panel

## Cc1ccc(C)c(COc2cc(NC(=O)c3ccc4c(c3)OCO4)ccc2N(C)S(C)(=O)=O)c1 [Compound #10, Benzo[1,3]dioxole-5-carboxylic acid [3-(2,5-dimethyl-benzyloxy)-4-(methanesulfonyl-methyl-amino)-phenyl]-amide]
CCRF-CEM
  TGI: >1.00E−4 Molar
CCRF-CEM; Homo sapiens
  GI50: 48.5 nM
CCRF-CEM; Homo sapiens, read-out: LC50
  CC50: > 100000 nM
CCRF-CEM; Log10 Concentration −4.0 Molar
  Percent Growth: 16%
CCRF-CEM; Log10 Concentration −5.0 Molar
  Percent Growth: 14%
CCRF-CEM; Log10 Concentration −6.0 Molar
  Percent Growth: 13%
CCRF-CEM; Log10 Concentration −7.0 Molar
  Percent Growth: 31%
CCRF-CEM; Log10 Concentration −8.0 Molar
  Percent Growth: 92%
K-562; Homo sapiens, K562, read-out: LC50
  CC50: > 100000 nM
K-562; Homo sapiens, K562, K-562
  GI50: 40.3 nM
K-562; K-562
  TGI: >1.00E−4 Molar
K-562; K-562, Log10 Concentration −4.0 Molar
  Percent Growth: 9%
K-562; K-562, Log10 Concentration −5.0 Molar
  Percent Growth: 9%
K-562; K-562, Log10 Concentration −6.0 Molar
  Percent Growth: 11%
K-562; K-562, Log10 Concentration −7.0 Molar
  Percent Growth: 20%
K-562; K-562, Log10 Concentration −8.0 Molar
  Percent Growth: 96%
NCI-H522; Homo sapiens, NCI-H522
  GI50: 33.5 nM
NCI-H522; Homo sapiens, NCI-H522, read-out: LC50
  CC50: > 100000 nM
NCI-H522; NCI-H522
  TGI: 2.40E−7 Molar
NCI-H522; NCI-H522, Log10 Concentration −4.0 Molar
  Percent Growth: −36%
NCI-H522; NCI-H522, Log10 Concentration −5.0 Molar
  Percent Growth: −42%
NCI-H522; NCI-H522, Log10 Concentration −6.0 Molar
  Percent Growth: −37%
NCI-H522; NCI-H522, Log10 Concentration −7.0 Molar
  Percent Growth: 23%
NCI-H522; NCI-H522, Log10 Concentration −8.0 Molar
  Percent Growth: 80%
COLO 205; COLO 205
  TGI: 1.07E−6 Molar
COLO 205; COLO 205, Log10 Concentration −4.0 Molar
  Percent Growth: −33%
COLO 205; COLO 205, Log10 Concentration −5.0 Molar
  Percent Growth: −41%
COLO 205; COLO 205, Log10 Concentration −6.0 Molar
  Percent Growth: 1%
COLO 205; COLO 205, Log10 Concentration −7.0 Molar
  Percent Growth: 99%
COLO 205; COLO 205, Log10 Concentration −8.0 Molar
  Percent Growth: 105%
COLO 205; Homo sapiens, COLO 205
  GI50: 318 nM
COLO 205; Homo sapiens, COLO 205, read-out: LC50
  CC50: > 100000 nM
SW-620; Homo sapiens, SW-620
  GI50: 112 nM
SW-620; Homo sapiens, SW-620, read-out: LC50
  CC50: > 100000 nM
SW-620; SW-620
  TGI: >1.00E−4 Molar
SW-620; SW-620, Log10 Concentration −4.0 Molar
  Percent Growth: 16%
SW-620; SW-620, Log10 Concentration −5.0 Molar
  Percent Growth: 21%
SW-620; SW-620, Log10 Concentration −6.0 Molar
  Percent Growth: 19%
SW-620; SW-620, Log10 Concentration −7.0 Molar
  Percent Growth: 52%
SW-620; SW-620, Log10 Concentration −8.0 Molar
  Percent Growth: 92%
SF-268; Homo sapiens, SF-268
  GI50: 288 nM
SF-268; Homo sapiens, SF-268, read-out: LC50
  CC50: > 100000 nM
SF-268; SF-268
  TGI: >1.00E−4 Molar
SF-268; SF-268, Log10 Concentration −4.0 Molar
  Percent Growth: 16%
SF-268; SF-268, Log10 Concentration −5.0 Molar
  Percent Growth: 9%
SF-268; SF-268, Log10 Concentration −6.0 Molar
  Percent Growth: 19%
SF-268; SF-268, Log10 Concentration −7.0 Molar
  Percent Growth: 77%
SF-268; SF-268, Log10 Concentration −8.0 Molar
  Percent Growth: 93%
U251; Homo sapiens, U-251, read-out: LC50
  CC50: > 100000 nM
U251; Homo sapiens, U-251, U251
  GI50: 266 nM
U251; U251
  TGI: 2.19E−5 Molar
U251; U251, Log10 Concentration −4.0 Molar
  Percent Growth: −16%
U251; U251, Log10 Concentration −5.0 Molar
  Percent Growth: 8%
U251; U251, Log10 Concentration −6.0 Molar
  Percent Growth: 15%
U251; U251, Log10 Concentration −7.0 Molar
  Percent Growth: 76%
U251; U251, Log10 Concentration −8.0 Molar
  Percent Growth: 97%
LOX IMVI
  TGI: >1.00E−4 Molar
LOX IMVI; Homo sapiens
  GI50: 66.6 nM
LOX IMVI; Homo sapiens, read-out: LC50
  CC50: > 100000 nM
LOX IMVI; Log10 Concentration −4.0 Molar
  Percent Growth: 26%
